Test results as given in PubChem BioAssay AID2060489 (Molecular Pharmacology Branch, DTP, NCI, 2025).

System: 922993-354-T-J3-PDC complex spheroids, viability
Assay: Anticancer human tumor 922993-354-T-J3-PDC patient-derived endometrial carcinoma cell line growth inhibition [GQUAD]
Details: for IC50: curve of first compound; for viability, T/C: stronger effect = lower value
In short: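 Multi-cell-type spheroids of tumor cells with HUVEC and mesenchymal stem cells, treated with drug combinations. Concentrations descend in half-log steps from near clinical Cmax, or from 10 microM where Cmax is unknown; viability read-out.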

[1] = second compound 0.0316 µM, first compound 0.0316 µM
[2] = second compound 0.0316 µM, first compound 0.1 µM
[3] = second compound 0.0316 µM, first compound 0.316 µM
[4] = second compound 0.0316 µM, first compound 1 µM
[5] = second compound 0.0316 µM, first compound 3.16 µM
[6] = second compound 0.0316 µM, first compound 10 µM
[7] = second compound 0.1 µM, first compound 0.0316 µM
[8] = second compound 0.1 µM, first compound 0.1 µM
[9] = second compound 0.1 µM, first compound 0.316 µM
[10] = second compound 0.1 µM, first compound 1 µM
[11] = second compound 0.1 µM, first compound 3.16 µM
[12] = second compound 0.1 µM, first compound 10 µM
[13] = second compound 0.316 µM, first compound 0.0316 µM
[14] = second compound 0.316 µM, first compound 0.1 µM
[15] = second compound 0.316 µM, first compound 0.316 µM
[16] = second compound 0.316 µM, first compound 1 µM
[17] = second compound 0.316 µM, first compound 3.16 µM
[18] = second compound 0.316 µM, first compound 10 µM
[19] = second compound 1 µM, first compound 0.0316 µM
[20] = second compound 1 µM, first compound 0.1 µM
[21] = second compound 1 µM, first compound 0.316 µM
[22] = second compound 1 µM, first compound 1 µM
[23] = second compound 1 µM, first compound 3.16 µM
[24] = second compound 1 µM, first compound 10 µM
[25] = second compound 3.16 µM, first compound 0.0316 µM
[26] = second compound 3.16 µM, first compound 0.1 µM
[27] = second compound 3.16 µM, first compound 0.316 µM
[28] = second compound 3.16 µM, first compound 1 µM
[29] = second compound 3.16 µM, first compound 3.16 µM
[30] = second compound 3.16 µM, first compound 10 µM
[31] = second compound 10 µM, first compound 0.0316 µM
[32] = second compound 10 µM, first compound 0.1 µM
[33] = second compound 10 µM, first compound 0.316 µM
[34] = second compound 10 µM, first compound 1 µM
[35] = second compound 10 µM, first compound 3.16 µM
[36] = second compound 10 µM, first compound 10 µM
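Further: spheroids exposed to compounds for seven days.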
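Wherever viability, T/C is given: 100% = DMSO vehicle control viability.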

## CC(C)n1c(=O)n(C)c2cnc3cc(F)c(-c4ccc(OCCCN5CCCCC5)nc4)cc3c21 + CN(C)c1ccc(Nc2c3ccc(NC(=O)CCN4CCCC4)cc3nc3cc(NC(=O)CCN4CCCC4)ccc23)cc1
Second compound 0.0316 µM
  IC50: > 10 µM
Second compound 0.1 µM
  IC50: > 10 µM
Second compound 0.316 µM
  IC50: > 10 µM
Second compound 1 µM
  IC50: > 10 µM
Second compound 3.16 µM
  IC50: 7.04 µM
Second compound 10 µM
  IC50: 1.82 µM
[1]
  viability, T/C: 118%
[2]
  viability, T/C: 84.9%
[3]
  viability, T/C: 99.3%
[4]
  viability, T/C: 59.6%
[5]
  viability, T/C: 91.7%
[6]
  viability, T/C: 71.4%
[7]
  viability, T/C: 114%
[8]
  viability, T/C: 89.5%
[9]
  viability, T/C: 101%
[10]
  viability, T/C: 73.3%
[11]
  viability, T/C: 81.7%
[12]
  viability, T/C: 59%
[13]
  viability, T/C: 99.3%
[14]
  viability, T/C: 91.7%
[15]
  viability, T/C: 97%
[16]
  viability, T/C: 70.2%
[17]
  viability, T/C: 84.7%
[18]
  viability, T/C: 70.9%
[19]
  viability, T/C: 81.2%
[20]
  viability, T/C: 97%
[21]
  viability, T/C: 92.2%
[22]
  viability, T/C: 82.1%
[23]
  viability, T/C: 77.1%
[24]
  viability, T/C: 65%
[25]
  viability, T/C: 96.8%
[26]
  viability, T/C: 103%
[27]
  viability, T/C: 98.5%
[28]
  viability, T/C: 76%
[29]
  viability, T/C: 67.6%
[30]
  viability, T/C: 43%
[31]
  viability, T/C: 114%
[32]
  viability, T/C: 73.7%
[33]
  viability, T/C: 114%
[34]
  viability, T/C: 67%
[35]
  viability, T/C: 36.1%
[36]
  viability, T/C: 32.3%

## O=C(c1cc(Cc2n[nH]c(=O)c3ccccc23)ccc1F)N1CCN(C(=O)C2CC2)CC1 + CN(C)c1ccc(Nc2c3ccc(NC(=O)CCN4CCCC4)cc3nc3cc(NC(=O)CCN4CCCC4)ccc23)cc1
Second compound 0.0316 µM
  IC50: > 10 µM
Second compound 0.1 µM
  IC50: > 10 µM
Second compound 0.316 µM
  IC50: > 10 µM
Second compound 1 µM
  IC50: > 10 µM
Second compound 3.16 µM
  IC50: > 10 µM
Second compound 10 µM
  IC50: > 10 µM
[1]
  viability, T/C: 103%
[2]
  viability, T/C: 105%
[3]
  viability, T/C: 94.2%
[4]
  viability, T/C: 86.5%
[5]
  viability, T/C: 89.8%
[6]
  viability, T/C: 106%
[7]
  viability, T/C: 115%
[8]
  viability, T/C: 81.9%
[9]
  viability, T/C: 91.9%
[10]
  viability, T/C: 86%
[11]
  viability, T/C: 94.9%
[12]
  viability, T/C: 106%
[13]
  viability, T/C: 89.5%
[14]
  viability, T/C: 84.3%
[15]
  viability, T/C: 115%
[16]
  viability, T/C: 87.3%
[17]
  viability, T/C: 91.2%
[18]
  viability, T/C: 78.5%
[19]
  viability, T/C: 83.7%
[20]
  viability, T/C: 86.5%
[21]
  viability, T/C: 87.8%
[22]
  viability, T/C: 74.7%
[23]
  viability, T/C: 97.5%
[24]
  viability, T/C: 107%
[25]
  viability, T/C: 84.2%
[26]
  viability, T/C: 105%
[27]
  viability, T/C: 110%
[28]
  viability, T/C: 75.5%
[29]
  viability, T/C: 120%
[30]
  viability, T/C: 93.7%
[31]
  viability, T/C: 110%
[32]
  viability, T/C: 128%
[33]
  viability, T/C: 109%
[34]
  viability, T/C: 99.4%
[35]
  viability, T/C: 133%
[36]
  viability, T/C: 132%
